Reference: patent publication US6833342B2, “Method of deodorizing and/or cleaning carpet using a composition comprising odor control agent” (The Procter & Gamble Company, priority 1999, dated 2004)

Experiment: Interaction of perfume components with cyclodextrin (CD interaction)
Format: physicochemical
Conditions: perfume component versus cyclodextrin
From the text: Hydrophobic perfume ingredients have a tendency to complex with the cyclodextrins. The degree of hydrophobicity of a perfume ingredient can be correlated with its octanol/water partition coefficient P. The octanol/water partition coefficient of a perfume ingredient is the ratio between its equilibrium concentration in octanol and in water. A perfume ingredient with a greater partition coefficient P is considered to be more hydrophobic. Conversely, a perfume ingredient with a smaller partition coefficient P is considered to be more hydrophilic. […].
The following table illustrates the molecular weight property of some of the preferred perfume versus non-preferred perfume components.

Row | Compound | CD interaction
1 | CC(C=O)Cc1ccc(C(C)C)cc1 (stereo not shown) [Cymal] | strong
2 | CCOC(=O)c1ccccc1C(=O)OCC [Diethyl Phthalate] | weak
3 | CC(=O)OC1CC2CC1C1CC=CC21 (stereo not shown) [Flor Acetate] | strong
4 | CCC(=O)OC1CC2CC1C1CC=CC21 (stereo not shown) [Frutene] | strong
5 | CC1COCc2cc3c(cc21)C(C)(C)C(C)C3(C)C (stereo not shown) [Galaxolide] | weak
6 | CCCCCCOC(=O)c1ccccc1O [Hexyl Salicylate] | weak
7 | CCCCCCC(C=O)=Cc1ccccc1 [Hexyl cinnamic Aldehyde] | weak
8 | CC(=O)C1(C)CC2=C(CCCC2(C)C)CC1C (stereo not shown) [Iso-E Super] | weak
9 | CCCCCCCCCCCCCC(=O)OC(C)C [Iso-propyl Myristate] | weak
10 | CC(=O)C(C)=C(C)C(C)C(C)(C)C (stereo not shown) [Koavone] | strong
11 | CC(C=O)Cc1ccc(C(C)(C)C)cc1 (stereo not shown) [Lilial, p-t-bucinal] | strong
12 | CC(C)(O)CCCC1=CCC(C=O)CC1 (stereo not shown) [Lyral] | weak
13 | CCCCCC1C(=O)CCC1CC(=O)OC (stereo not shown) [Methyl Dihydro Jasmonate] | weak
14 | O=C(Cc1ccccc1)OCCc1ccccc1 [Phenyl-Ethyl-Phenyl Acetate] | weak
15 | CC(=O)OC(C)(C)C1CC=C(C)CC1 (stereo not shown) [Terpinyl Acetate] | significant
16 | CCC(C)(O)CCCC(C)C (stereo not shown) [Tetrahydrolinalol] | significant
17 | CC(=O)OC1CCC(C(C)(C)C)CC1 (stereo not shown) [Vertenex, para-tert-butylcyclohexyl acetate] | strong
18 | CC(=O)/C=C/C1C(C)=CCCC1(C)C (stereo not shown) [a-ionone] | strong
19 | a-Me Ionone | strong
